Measured values: ChEMBL document CHEMBL1201862, “PubChem BioAssay data set” (2004)
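Interpolation was linear, between the two tested concentrations surrounding the appropriate level; five concentrations were tested over 48 hours in 96-well plates. GI50: concentration for 50% inhibition of growth.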 Active and inactive are the calls of the source. Cut-off read from the data, not from the text of the source: active = GI50 up to about 1.1 µM and inactive = higher.

How the values were obtained:
Test in all cases: growth of human tumour cells (NCI), 48 h
[1] = test system: NCI-H460
[2] = test system: NCI/ADR-RES
[3] = test system: ACHN
[4] = test system: 786-0
[5] = test system: SK-MEL-5
[6] = test system: RXF 393
[7] = test system: HOP-62
[8] = test system: Malme-3M
[9] = test system: IGROV-1
[10] = test system: NCI-H522
[11] = test system: SR
[12] = test system: SF-539
[13] = test system: T47D
[14] = test system: MDA-MB-435
[15] = test system: RPMI-8226
[16] = test system: SF-268
[17] = test system: K562
[18] = test system: MDA-MB-231
[19] = test system: SK-MEL-28
[20] = test system: HL-60
[21] = test system: TK-10
[22] = test system: HOP-92
[23] = test system: UO-31
[24] = test system: Hs-578T
[25] = test system: U-251
[26] = test system: COLO 205
[27] = test system: MOLT-4
[28] = test system: A549
[29] = test system: SK-OV-3
[30] = test system: KM12
[31] = test system: MDA-N
[32] = test system: SN12C
[33] = test system: SNB-75
[34] = test system: HT-29
[35] = test system: UACC-257
[36] = test system: HCT-15
[37] = test system: OVCAR-3
[38] = test system: PC-3
[39] = test system: HCC 2998
[40] = test system: LOX IMVI
[41] = test system: A498
[42] = test system: SK-MEL-2
[43] = test system: DU-145
[44] = test system: SF-295
[45] = test system: SNB-19
[46] = test system: CAKI-1
[47] = test system: HCT-116
[48] = test system: BT-549
[49] = test system: MCF7
[50] = test system: M14
[51] = test system: CCRF-CEM
[52] = test system: NCI-H23
[53] = test system: OVCAR-8
[54] = test system: EKVX
[55] = test system: OVCAR-5
[56] = test system: UACC-62
[57] = test system: SW-620

`O=C(NC12CC3CC(CC(C3)C1)C2)n1cnc2cncnc21` was tested, and the GI50 [1] was 32.3 µM (inactive), the GI50 [2] was 28.6 µM (inactive) and the GI50 [3] was 34.8 µM (inactive). For the same molecule, the GI50 [4] was 50.1 µM (inactive), the GI50 [5] was 16.1 µM (inactive) and the GI50 [6] was 26.5 µM (inactive). The GI50 [7] was 18.2 µM (inactive), the GI50 [8] was 26 µM (inactive) and the GI50 [9] was 26.6 µM (inactive). For the same molecule, the GI50 [10] was 16.1 µM (inactive), the GI50 [11] was 24.4 µM (inactive) and the GI50 [12] was 25.1 µM (inactive). The GI50 [13] was 20.6 µM (inactive), the GI50 [14] was 31.3 µM (inactive) and the GI50 [15] was 22.5 µM (inactive). For the same molecule, the GI50 [16] was 53.5 µM (inactive), the GI50 [17] was 35.1 µM (inactive) and the GI50 [18] was 70 µM (inactive). For the same molecule, the GI50 [19] was > 100 µM (inactive), the GI50 [20] was 28.7 µM (inactive) and the GI50 [21] was 30.2 µM (inactive). For the same molecule, the GI50 [22] was 28.2 µM (inactive), the GI50 [23] was 91.2 µM (inactive) and the GI50 [24] was 54.6 µM (inactive). For the same molecule, the GI50 [25] was 35.3 µM (inactive), the GI50 [26] was 20.6 µM (inactive) and the GI50 [27] was 33.3 µM (inactive). The GI50 [28] was 47.5 µM (inactive), the GI50 [29] was 17.8 µM (inactive) and the GI50 [30] was 30.8 µM (inactive). For the same molecule, the GI50 [31] was 33.5 µM (inactive), the GI50 [32] was 36 µM (inactive) and the GI50 [33] was 44.5 µM (inactive). The GI50 [34] was 28.4 µM (inactive), the GI50 [35] was 56.5 µM (inactive) and the GI50 [36] was 27.7 µM. For the same molecule, the GI50 [37] was 18.2 µM (inactive), the GI50 [38] was 25.8 µM (inactive) and the GI50 [39] was 35.6 µM (inactive). The GI50 [40] was 25.8 µM (inactive), the GI50 [41] was 65.9 µM (inactive) and the GI50 [42] was 18.2 µM (inactive). For the same molecule, the GI50 [43] was 25.6 µM (inactive), the GI50 [44] was 21.6 µM (inactive) and the GI50 [45] was 93.3 µM (inactive). For the same molecule, the GI50 [46] was 28.4 µM (inactive), the GI50 [47] was 32.7 µM (inactive) and the GI50 [48] was 46.8 µM (inactive). The GI50 [49] was 27.5 µM (inactive), the GI50 [50] was 54.7 µM (inactive) and the GI50 [51] was 26.5 µM (inactive). The GI50 [52] was 37.8 µM (inactive), the GI50 [53] was 30.1 µM (inactive) and the GI50 [54] was 37.6 µM (inactive). For the same molecule, the GI50 [55] was 34.3 µM (inactive), the GI50 [56] was 39.2 µM (inactive) and the GI50 [57] was 39.8 µM (inactive).
